Source: publication PMC9645260, “Small-molecule inhibitors of P-Rex guanine-nucleotide exchange factors” (Small GTPases, 2022)

Experiments:
HEK-293 cells = assay: Cell cycle stages by propidium iodide flow cytometry; assay type: cell-based
Description: Human embryonic kidney 293 (HEK-293) cells were grown at 37°C in a humidified 5% CO2 atmosphere in Dulbecco’s modified Eagle medium (DMEM, Gibco) supplemented with 10% foetal bovine serum (FBS), 100 units/ml penicillin and 100 µg/ml streptomycin. Cells were passaged by tryptic digest 1:4 approximately every 2 days. To measure cell cycle stages, 2 ml HEK293 cells were plated per well of a 6-well dish (Thermo Scientific, Nunc) at 10^5 cells/ml. After 24 h, the medium was replaced with fresh medium containing various concentrations of PREX-in1, as indicated, or 10 μM NSC23766, or vehicle control (0.1% DMSO), and cells were incubated for a further 24 h. The medium was removed but kept aside to recover any detached cells. Wells were washed with PBS, and cells recovered by trypsinization. Cell suspensions were pooled with the culture supernatant and centrifuged at 433 × g for 5 min at RT. Cells were washed in PBS, resuspended in ice-cold 70% ethanol/PBS, and incubated for 30 min at 4°C for fixation and permeabilization. Cells were washed once more in PBS, then stained with 50 µg/ml propidium iodide in PBS containing 100 µg/ml RNase for 30 min at 37°C. Cells were analysed by flow cytometry for the intensity of propidium iodide staining using a FACSCalibur flow cytometer. 10,000 cells were analysed per sample. Data analysis was done using FloJo software.

[1] = system: primary mouse neutrophils; assay: Neutrophil ROS production, fMLP-stimulated; assay type: cell-based; conditions: 10 µM fMLP
Description: Prex^−/− mice (Prex1^−/−Prex2^−/−) with general P-Rex deficiency were described previously and were compared to Prex^+/+ (Prex1^+/+Prex2^+/+) control mice on the same genetic background (C57Bl6/129Ola backcrossed seven times to C57Bl6). Mice were group-housed (up to 5) under specific opportunistic pathogen-free isolator conditions in Babraham’s small animal barrier facility that uses 12 h light/dark cycles with dusk and dawn settings, and were fed chow diet and water ad libitum. Mice from both sexes were used for experiments, at young-adult age (between 8 and 14 weeks), and were sex- and age-matched between genotypes within experiments. […]
Mature primary neutrophils were isolated from the bone marrow of age- and sex-matched Prex^+/+ and Prex^−/− mice freshly each day at 4°C, using Percoll^Plus (GE Healthcare) gradient, as described, using endotoxin-free media throughout. Isolated neutrophils were 70–90% pure, as assessed by KwikDiff staining of cytospins. ROS production was measured by real-time chemiluminescence assay as described, except that neutrophils were incubated with PREX-in1 before the assay. […] Real-time ROS production was recorded in a Berthold MicroLumat Plus luminometer (Berthold Technologies) at 37°C, for 2.5 min with fMLP stimulation or for 10 min with PMA stimulation. […]

COc1ccc(-c2[nH]nc3c2C(c2ccc(-c4ccc(Cl)cc4)o2)C(C#N)=C(N)O3)cc1 (stereo not shown) [PREX-in1, 6-amino-4-[5-(4-chlorophenyl)-2-furyl]-3-(4-methoxyphenyl)-2,4-dihydropyrano[2,3-c]pyrazole-5-carbonitrile]
cytotoxic effects (HEK-293 cells; 1 µM): did not observe cytotoxic effects | cell death (sub-G1 phase) (HEK-293 cells; 24 h treatment, 10 µM): promotes cell death | inhibition at 1 µM ([1]; Mus musculus, Neutrophil, 7 min, Prex+/+ neutrophils, 1 µM for 7 min, read-out: inhibition of ROS production overall): 50% | effect on ROS response ([1]; Prex-/- neutrophils, 1 µM): did not affect
